Experimental data: the supplement of paper PMC10307832

What was measured:
Assay in all cases: relative viability (nuclei count vs DMSO), 5 days (fraction); higher = more cells survive
QS11 + Bortezomib = compound: C1CC2=C(C1)C=C(C=C2)OC3=NC(=C4C(=N3)N(C=N4)CC5=CC=C(C=C5)C6=CC=CC=C6)N[C@@H](CC7=CC=CC=C7)CO [QS11] + CC(C)C[C@H](NC(=O)[C@H](Cc1ccccc1)NC(=O)c1cnccn1)B(O)O [Bortezomib] (partner 0.002 µM)
Summary of the method: (§1)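 Lung cancer cell lines were pin-tool dosed in 1536-well plates on the day after seeding, with either a lone drug or a fixed anchor-drug dose plus five library-drug doses (not always all listed) in √10 steps. Nuclei were counted on 4× images after 5 days. Relative viability is the ratio of treated-well to vehicle-well nuclei counts, with each value a median of duplicate plates.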

QS11 + Pictilisib = compound: C1CC2=C(C1)C=C(C=C2)OC3=NC(=C4C(=N3)N(C=N4)CC5=CC=C(C=C5)C6=CC=CC=C6)N[C@@H](CC7=CC=CC=C7)CO [QS11] + CS(=O)(=O)N1CCN(Cc2cc3nc(-c4cccc5[nH]ncc45)nc(N4CCOCC4)c3s2)CC1 [Pictilisib] (partner 1 µM)
Summary of the method: as §1

AZ628 + Phenformin = compound: CC1=C(C=C(C=C1)NC(=O)C2=CC(=CC=C2)C(C)(C)C#N)NC3=CC4=C(C=C3)N=CN(C4=O)C [AZ628] + N=C(N)NC(=N)NCCc1ccccc1 [Phenformin] (partner 250 µM)
Summary of the method: as §1

AZ628 + Decitabine = compound: CC1=C(C=C(C=C1)NC(=O)C2=CC(=CC=C2)C(C)(C)C#N)NC3=CC4=C(C=C3)N=CN(C4=O)C [AZ628] + Nc1ncn([C@H]2C[C@H](O)[C@@H](CO)O2)c(=O)n1 [Decitabine] (partner 2 µM)
Summary of the method: as §1

## HCC-78
QS11 + Bortezomib; first compound 0.08 µM
  relative viability: 0.478
QS11 + Bortezomib; first compound 0.253 µM
  relative viability: 0.484
QS11 + Bortezomib; first compound 0.8 µM
  relative viability: 0.457
QS11 + Bortezomib; first compound 2.53 µM
  relative viability: 0.486
QS11 + Bortezomib; first compound 8 µM
  relative viability: 0.544
QS11 + Pictilisib; first compound 0.08 µM
  relative viability: 0.206
QS11 + Pictilisib; first compound 0.253 µM
  relative viability: 0.185
QS11 + Pictilisib; first compound 0.8 µM
  relative viability: 0.206
QS11 + Pictilisib; first compound 2.53 µM
  relative viability: 0.222
QS11 + Pictilisib; first compound 8 µM
  relative viability: 0.29
AZ628 + Phenformin; first compound 0.08 µM
  relative viability: 0.814
AZ628 + Phenformin; first compound 0.253 µM
  relative viability: 0.631
AZ628 + Phenformin; first compound 0.8 µM
  relative viability: 0.767
AZ628 + Phenformin; first compound 2.53 µM
  relative viability: 0.705
AZ628 + Phenformin; first compound 8 µM
  relative viability: 0.726
AZ628 + Decitabine; first compound 0.08 µM
  relative viability: 0.734
AZ628 + Decitabine; first compound 0.253 µM
  relative viability: 0.629
AZ628 + Decitabine; first compound 0.8 µM
  relative viability: 0.771
AZ628 + Decitabine; first compound 2.53 µM
  relative viability: 0.787
AZ628 + Decitabine; first compound 8 µM
  relative viability: 0.848

## NCI-H23
QS11 + Bortezomib; first compound 0.08 µM
  relative viability: 1.03
QS11 + Bortezomib; first compound 0.253 µM
  relative viability: 0.926
QS11 + Bortezomib; first compound 0.8 µM
  relative viability: 0.978
QS11 + Bortezomib; first compound 2.53 µM
  relative viability: 0.722
QS11 + Bortezomib; first compound 8 µM
  relative viability: 1
QS11 + Pictilisib; first compound 0.08 µM
  relative viability: 0.394
QS11 + Pictilisib; first compound 0.253 µM
  relative viability: 0.413
QS11 + Pictilisib; first compound 0.8 µM
  relative viability: 0.405
QS11 + Pictilisib; first compound 2.53 µM
  relative viability: 0.433
QS11 + Pictilisib; first compound 8 µM
  relative viability: 0.361
AZ628 + Phenformin; first compound 0.08 µM
  relative viability: 0.841
AZ628 + Phenformin; first compound 0.253 µM
  relative viability: 0.806
AZ628 + Phenformin; first compound 0.8 µM
  relative viability: 0.619
AZ628 + Phenformin; first compound 2.53 µM
  relative viability: 0.716
AZ628 + Phenformin; first compound 8 µM
  relative viability: 0.595
AZ628 + Decitabine; first compound 0.08 µM
  relative viability: 0.298
AZ628 + Decitabine; first compound 0.253 µM
  relative viability: 0.315
AZ628 + Decitabine; first compound 0.8 µM
  relative viability: 0.232
AZ628 + Decitabine; first compound 2.53 µM
  relative viability: 0.291
AZ628 + Decitabine; first compound 8 µM
  relative viability: 0.269

## NCI-H838
QS11 + Bortezomib; first compound 0.08 µM
  relative viability: 0.942
QS11 + Bortezomib; first compound 0.253 µM
  relative viability: 0.641
QS11 + Bortezomib; first compound 0.8 µM
  relative viability: 0.684
QS11 + Bortezomib; first compound 2.53 µM
  relative viability: 0.851
QS11 + Bortezomib; first compound 8 µM
  relative viability: 0.923
QS11 + Pictilisib; first compound 0.08 µM
  relative viability: 0.399
QS11 + Pictilisib; first compound 0.253 µM
  relative viability: 0.388
QS11 + Pictilisib; first compound 0.8 µM
  relative viability: 0.394
QS11 + Pictilisib; first compound 2.53 µM
  relative viability: 0.382
QS11 + Pictilisib; first compound 8 µM
  relative viability: 0.476
AZ628 + Phenformin; first compound 0.08 µM
  relative viability: 0.666
AZ628 + Phenformin; first compound 0.253 µM
  relative viability: 0.551
AZ628 + Phenformin; first compound 0.8 µM
  relative viability: 0.502
AZ628 + Phenformin; first compound 2.53 µM
  relative viability: 0.493
AZ628 + Phenformin; first compound 8 µM
  relative viability: 0.474
AZ628 + Decitabine; first compound 0.08 µM
  relative viability: 0.49
AZ628 + Decitabine; first compound 0.253 µM
  relative viability: 0.504
AZ628 + Decitabine; first compound 0.8 µM
  relative viability: 0.476
AZ628 + Decitabine; first compound 2.53 µM
  relative viability: 0.455
AZ628 + Decitabine; first compound 8 µM
  relative viability: 0.479

## COR-L23
QS11 + Bortezomib; first compound 0.08 µM
  relative viability: 1.08
QS11 + Bortezomib; first compound 0.253 µM
  relative viability: 1.13
QS11 + Bortezomib; first compound 0.8 µM
  relative viability: 0.86
QS11 + Bortezomib; first compound 2.53 µM
  relative viability: 0.942
QS11 + Bortezomib; first compound 8 µM
  relative viability: 0.765
QS11 + Pictilisib; first compound 0.08 µM
  relative viability: 0.807
QS11 + Pictilisib; first compound 0.253 µM
  relative viability: 0.717
QS11 + Pictilisib; first compound 0.8 µM
  relative viability: 0.806
QS11 + Pictilisib; first compound 2.53 µM
  relative viability: 0.662
QS11 + Pictilisib; first compound 8 µM
  relative viability: 0.681
AZ628 + Phenformin; first compound 0.08 µM
  relative viability: 0.54
AZ628 + Phenformin; first compound 0.253 µM
  relative viability: 0.476
AZ628 + Phenformin; first compound 0.8 µM
  relative viability: 0.433
AZ628 + Phenformin; first compound 2.53 µM
  relative viability: 0.445
AZ628 + Phenformin; first compound 8 µM
  relative viability: 0.333
AZ628 + Decitabine; first compound 0.08 µM
  relative viability: 0.471
AZ628 + Decitabine; first compound 0.253 µM
  relative viability: 0.43
AZ628 + Decitabine; first compound 0.8 µM
  relative viability: 0.349
AZ628 + Decitabine; first compound 2.53 µM
  relative viability: 0.453
AZ628 + Decitabine; first compound 8 µM
  relative viability: 0.27

## ChaGo-K-1
QS11 + Bortezomib; first compound 0.253 µM
  relative viability: 1.01
QS11 + Bortezomib; first compound 0.8 µM
  relative viability: 1.17
QS11 + Bortezomib; first compound 2.53 µM
  relative viability: 1.25
QS11 + Bortezomib; first compound 8 µM
  relative viability: 1.09
QS11 + Pictilisib; first compound 0.253 µM
  relative viability: 0.841
QS11 + Pictilisib; first compound 0.8 µM
  relative viability: 0.882
QS11 + Pictilisib; first compound 2.53 µM
  relative viability: 1.24
QS11 + Pictilisib; first compound 8 µM
  relative viability: 1.05
AZ628 + Phenformin; first compound 0.08 µM
  relative viability: 0.559
AZ628 + Phenformin; first compound 0.253 µM
  relative viability: 0.464
AZ628 + Phenformin; first compound 0.8 µM
  relative viability: 0.398
AZ628 + Phenformin; first compound 2.53 µM
  relative viability: 0.459
AZ628 + Phenformin; first compound 8 µM
  relative viability: 0.373
AZ628 + Decitabine; first compound 0.08 µM
  relative viability: 0.548
AZ628 + Decitabine; first compound 0.253 µM
  relative viability: 0.504
AZ628 + Decitabine; first compound 0.8 µM
  relative viability: 0.558
AZ628 + Decitabine; first compound 2.53 µM
  relative viability: 0.524
AZ628 + Decitabine; first compound 8 µM
  relative viability: 0.481

## LCLC-103H
QS11 + Bortezomib; first compound 0.08 µM
  relative viability: 1.04
QS11 + Bortezomib; first compound 0.253 µM
  relative viability: 1.1
QS11 + Bortezomib; first compound 0.8 µM
  relative viability: 0.811
QS11 + Bortezomib; first compound 2.53 µM
  relative viability: 1.07
QS11 + Bortezomib; first compound 8 µM
  relative viability: 0.891
QS11 + Pictilisib; first compound 0.08 µM
  relative viability: 0.636
QS11 + Pictilisib; first compound 0.253 µM
  relative viability: 0.543
QS11 + Pictilisib; first compound 0.8 µM
  relative viability: 0.591
QS11 + Pictilisib; first compound 2.53 µM
  relative viability: 0.74
QS11 + Pictilisib; first compound 8 µM
  relative viability: 0.609
AZ628 + Phenformin; first compound 0.08 µM
  relative viability: 0.358
AZ628 + Phenformin; first compound 0.253 µM
  relative viability: 0.329
AZ628 + Phenformin; first compound 0.8 µM
  relative viability: 0.343
AZ628 + Phenformin; first compound 2.53 µM
  relative viability: 0.302
AZ628 + Phenformin; first compound 8 µM
  relative viability: 0.308
AZ628 + Decitabine; first compound 0.08 µM
  relative viability: 0.71
AZ628 + Decitabine; first compound 0.253 µM
  relative viability: 0.728
AZ628 + Decitabine; first compound 0.8 µM
  relative viability: 0.726
AZ628 + Decitabine; first compound 2.53 µM
  relative viability: 0.641
AZ628 + Decitabine; first compound 8 µM
  relative viability: 0.601

## ABC-1
QS11 + Bortezomib; first compound 0.08 µM
  relative viability: 0.309
QS11 + Bortezomib; first compound 0.253 µM
  relative viability: 0.399
QS11 + Bortezomib; first compound 0.8 µM
  relative viability: 0.319
QS11 + Bortezomib; first compound 2.53 µM
  relative viability: 0.324
QS11 + Bortezomib; first compound 8 µM
  relative viability: 0.278
QS11 + Pictilisib; first compound 0.08 µM
  relative viability: 0.657
QS11 + Pictilisib; first compound 0.253 µM
  relative viability: 0.6
QS11 + Pictilisib; first compound 0.8 µM
  relative viability: 0.651
QS11 + Pictilisib; first compound 2.53 µM
  relative viability: 0.764
QS11 + Pictilisib; first compound 8 µM
  relative viability: 1.06
AZ628 + Phenformin; first compound 0.08 µM
  relative viability: 0.274
AZ628 + Phenformin; first compound 0.253 µM
  relative viability: 0.188
AZ628 + Phenformin; first compound 0.8 µM
  relative viability: 0.205
AZ628 + Phenformin; first compound 2.53 µM
  relative viability: 0.211
AZ628 + Phenformin; first compound 8 µM
  relative viability: 0.235
AZ628 + Decitabine; first compound 0.08 µM
  relative viability: 1.07
AZ628 + Decitabine; first compound 0.253 µM
  relative viability: 0.898
AZ628 + Decitabine; first compound 0.8 µM
  relative viability: 1.07
AZ628 + Decitabine; first compound 2.53 µM
  relative viability: 1.18
AZ628 + Decitabine; first compound 8 µM
  relative viability: 1.07

## SW 1573
QS11 + Bortezomib; first compound 0.08 µM
  relative viability: 0.957
QS11 + Bortezomib; first compound 0.253 µM
  relative viability: 1.07
QS11 + Bortezomib; first compound 0.8 µM
  relative viability: 0.971
QS11 + Bortezomib; first compound 2.53 µM
  relative viability: 1.12
QS11 + Bortezomib; first compound 8 µM
  relative viability: 0.837
QS11 + Pictilisib; first compound 0.08 µM
  relative viability: 0.53
QS11 + Pictilisib; first compound 0.253 µM
  relative viability: 0.481
QS11 + Pictilisib; first compound 0.8 µM
  relative viability: 0.425
QS11 + Pictilisib; first compound 2.53 µM
  relative viability: 0.311
QS11 + Pictilisib; first compound 8 µM
  relative viability: 0.298
AZ628 + Phenformin; first compound 0.08 µM
  relative viability: 0.322
AZ628 + Phenformin; first compound 0.253 µM
  relative viability: 0.308
AZ628 + Phenformin; first compound 0.8 µM
  relative viability: 0.215
AZ628 + Phenformin; first compound 2.53 µM
  relative viability: 0.288
AZ628 + Phenformin; first compound 8 µM
  relative viability: 0.2
AZ628 + Decitabine; first compound 0.08 µM
  relative viability: 0.503
AZ628 + Decitabine; first compound 0.253 µM
  relative viability: 0.445
AZ628 + Decitabine; first compound 0.8 µM
  relative viability: 0.435
AZ628 + Decitabine; first compound 2.53 µM
  relative viability: 0.408
AZ628 + Decitabine; first compound 8 µM
  relative viability: 0.374
